Results as given in the METLIN SMRT retention time set (Domingo-Almenara et al. 2019).

Test: gradient 5% acetonitrile 3 min, to 50% in 2 min, to 85% in 15 min, held 3 min, 100 µL/min
Details: column: Zorbax Extend-C18 2.1 x 50 mm; eluents: water / acetonitrile, 0.1% formic acid
Method in brief: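 Retention times of pure standards were taken from adduct peaks that were selected by computer and manually inspected. Over 3 months, mixtures of ~100 molecules were run by HPLC–quadrupole time-of-flight mass spectrometry in positive and negative ionization mode. The Zorbax Extend-C18 column (2.1 × 50 mm, 1.8 μm) ran at 100 μL/min in water and acetonitrile, each containing 0.1% formic acid, with 40 μL dead volume and 900 μL dwell volume.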

| SMILES | RP-LC retention time [s] |
| --- | --- |
| O=C(CN1CCN(CC(=O)c2cccs2)CC1)Nc1cc(C(F)(F)F)ccc1Cl | 625 |
| Cn1nnnc1C1CCCN(C(=O)C2CC2)C1 (centres undefined) | 605 |
| Cc1ccc(C)c(NS(=O)(=O)c2cn(C(C)C)c3ncccc23)c1 | 960 |
| CN(C)S(=O)(=O)c1ccc(N)c([N+](=O)[O-])c1 | 773 |
| O=C(CCN1CCN(CCO)CC1)N1c2ccccc2Sc2ccc(C(F)(F)F)cc21 | 673 |
| COc1ccc(NC(=O)Cc2nnc3ccc(C(=O)Nc4ccccc4)cn23)cc1 | 749 |
| O=C(c1ccccc1Cl)N1CCN(c2cc(-c3ccc(Cl)cc3)[nH]n2)CC1 | 854 |
| C[C@@H](NC(=O)c1cccc(F)c1)C(=O)NCc1cscn1 | 636 |
| COCC(=O)Nc1ccc2c(c1)CN(C(=O)c1ccccc1)CC2 | 658 |
| NS(=O)(=O)c1cccnc1Nc1ccc(F)c(Cl)c1 | 879 |
| O=C(c1ccc(F)cc1Cl)N1CCN(c2cc(-c3ccc(F)cc3)[nH]n2)CC1 | 837 |
| CCN1CCN(C(=O)C2CCN(S(=O)(=O)c3cc(C(=O)N4CCCC4)n(C)c3)CC2)CC1 | 567 |
| CCn1cc(-c2nc(C(=O)Nc3ccc(Cl)cc3)cs2)c2cccnc21 | 1330 |
| O=C(CN1CCN(Cc2ccccc2F)C1=O)NCc1ccc(F)cc1 | 808 |
| CCOC(=O)c1cc2c(cn1)[nH]c1ccccc12 | 691 |
| CCN1C(=O)c2ccccc2Oc2ccc(C(=O)N3CCC4(CC3)OCCO4)cc21 | 770 |
| CC(=O)Nc1ccc(S(=O)(=O)N2CCC(CN3CCC(C)CC3)CC2)cc1 | 608 |
| Cc1ccc(NC(=O)Nc2ccc3nnc(C)n3c2)c(C)c1 | 695 |
| CCc1nc2sc(C(C)C)nn2c1S(=O)(=O)N1CCSCC1 | 962 |
| CCOC(=O)C(C)Sc1nnc(NC(=O)c2cccc([N+](=O)[O-])c2C)s1 (centres undefined) | 859 |
| Cc1ccc(C(=O)N2CCN(c3nc(CN4CCOCC4)cs3)CC2)cc1 | 651 |
| Cc1ccc(-c2cc3c(=O)n(Cc4nc(-c5ccccc5)no4)ncn3n2)c(C)c1 | 1200 |
| Cc1ccc(CNC(=O)c2cn(C)nc2S(=O)(=O)N2CCSCC2)cc1 | 902 |

| SMILES | RP-LC retention time [s] |
| --- | --- |
| COc1cc(OC)cc(-c2noc(Cn3ccn4nc(-c5ccc(Cl)cc5)cc4c3=O)n2)c1 | 1130 |
| COc1ccccc1N1CCN(C(=S)Nc2ccc3nc(N4CCN(C)CC4)cc(C)c3c2)CC1 | 586 |
| COc1cc(NC(=O)Cn2c(=O)n(-c3ccc(C)cc3)c(=O)c3c2cc(C)n3C)cc(OC)c1 | 866 |
| Cc1cc(F)ccc1NC(=O)C1CCN(S(=O)(=O)c2cn(C(C)C)cn2)CC1 | 732 |
| NC(=O)[C@@H]1C[C@H](Oc2cccnc2)CN1C(=O)c1cccs1 | 532 |
| O=C(NCc1ccccc1)C1=Cc2ccccc2OC=C1 | 933 |
| CCOCCCNC(=O)c1cc2sccc2n1Cc1ccc(Cl)cc1 | 1040 |
| CCOc1ccc(CC(=O)NC(CC(C)C)C(=O)Nc2nc3ccccc3[nH]2)cc1OCC (centres undefined) | 758 |
| Cc1cc(C)cc(Oc2nccn3c(=O)n(CC(=O)Nc4ccccc4C)nc23)c1 | 838 |
| O=C(CN1CC=C(c2cnn(-c3ccccc3)c2)CC1)N1CCN(c2ccccc2F)CC1 | 732 |
| Cc1ccc(-c2cc(C(=O)NCCc3ccc(S(N)(=O)=O)cc3)c(C)[nH]2)cc1C | 794 |
| CCOc1ccccc1-c1noc(Cn2c(=O)n(C(C)C)c(=O)c3ccccc32)n1 | 1090 |
| O=C(O)c1ccccc1SC1CC(=O)N(c2ccccc2OC(F)F)C1=O (centres undefined) | 741 |
| Cc1nn(S(=O)(=O)N(C)C)c(C)c1Br | 881 |
| CN1c2cc(F)ccc2C(=O)NC12CCN(C(=O)c1cc(F)cc(F)c1)CC2 | 793 |
| COCc1cn(C2CN(C(=O)c3ccc(OC)c(F)c3)C2)nn1 | 649 |
| CCc1cc(=O)n(CC(=O)Nc2ccc(Cl)c(Cl)c2)c(-n2nc(C)cc2C)n1 | 1060 |
| Cc1ccc(N(C)C(=O)C2CCCN2S(=O)(=O)c2cc3c(cc2C)NC(=O)C(C)O3)cc1 (centres undefined) | 814 |
| CC1CCN(C(=O)C2=CN(c3cccc(F)c3)c3ccccc3S2(=O)=O)CC1 | 908 |
| O=C1CN(C(=O)Cc2ccccc2Cl)C2(CCCC2)CN1 | 727 |
| COCCN(CC(=O)N1CCc2sccc2C1COc1ccccc1)C(=O)COC (centres undefined) | 787 |
| CCOC(=O)c1c(S(=O)(=O)N2CCC(C(=O)Nc3cc(C)cc(C)c3)CC2)c(C)n(C)c1C | 942 |

Second part, the compound after the results:

| RP-LC retention time [s] | SMILES |
| --- | --- |
| 768 | COc1cccc(N2CCN(c3ccnc(SCC(=O)Nc4ccc(F)cc4)n3)CC2)c1 |
| 665 | COc1ccc(-c2ccc3nc(N4CCC(C(=O)NCCN(C)C)CC4)sc3n2)cc1 |
| 1000 | COc1cccc(CNC(=O)N2c3ccccc3CC2c2nc(C(C)C)no2)c1 (centres undefined) |
| 1010 | Cc1nc(-c2ccccc2)cc2nn(CC(=O)N3CCCc4ccccc43)c(=O)n12 |
| 724 | CCn1cnc(S(=O)(=O)N2CCC(C(=O)Nc3ccc(OC)c(Cl)c3)CC2)c1 |
| 996 | CCN1C(=O)COc2cc(-c3noc(C(=O)NC4CCCCC4)n3)ccc21 |
| 596 | CCOC(=O)c1c(C)oc2nc(C)nc(NCCCN3CCN(c4ccccc4OC)CC3)c12 |
| 602 | CNC(=O)[C@@H]1CN(C(=O)NCc2ccco2)C[C@H]1c1nc(C)no1 |
| 1080 | COc1ccc(S(=O)(=O)N2CC(=O)N(C3CCCC3)C3(CCCCC3)C2)cc1OC |
| 644 | COc1nn(C)cc1C(=O)NCc1cc(-c2ccco2)on1 |
| 984 | O=C(NCCC1=CCCCC1)c1nnc(-c2ccc(S(=O)(=O)N3CCOCC3)cc2)o1 |
| 643 | CCOC(=O)C1=C(CN2CCC(C(=O)OCC)CC2)NC(=O)NC1c1ccccc1 (centres undefined) |
| 669 | Cc1cc(=O)n(CC(=O)N(C)c2ccccc2)c(N2CCCCC2)n1 |
| 892 | Cc1cc(Cl)ccc1NC(=O)C1CCN(S(=O)(=O)c2cc(C(=O)N3CCCC3)cs2)CC1 |
| 601 | Cc1nn(C)cc1CN1C[C@@H]2C(=O)N(Cc3ccc4c(c3)OCO4)C(=O)[C@@H]2C1 |
| 659 | CCNc1cc(N2CCCC(CCC(=O)Nc3ccc(OC)cc3)C2)ncn1 (centres undefined) |
| 902 | Cc1cc(C(=O)N2CCCCC2)c2c(=O)n(Cc3ccc4nonc4c3)c(=O)n(C)c2n1 |
| 609 | COCCCNC(=O)C1CCC(=O)N(c2ccc(OC)cc2)C1c1ccc(F)cc1 (centres undefined) |
| 665 | CCn1c(=O)c(C(=O)N2CCCC2)nc2ccccc21 |
| 868 | CC(C)CCNC(=O)C1CCCN(c2ccc(=O)n(-c3cccc(F)c3)n2)C1 (centres undefined) |
| 865 | O=C(Nc1cnn(-c2ncc(N3CCCCC3)cn2)c1)c1ccccc1C(F)(F)F |
| 893 | Cc1ccc(-n2ccc(=O)c(-c3nc(-c4ccc5c(c4)OCO5)no3)n2)cc1 |

| RP-LC retention time [s] | SMILES |
| --- | --- |
| 904 | Cn1ncc2c3ccccc3n(CC(=O)NCCC3=CCCCC3)c2c1=O |
| 570 | O=C(NCCCN1CCCC1=O)c1ccc2ncnc(N3CCCC3)c2c1 |
| 785 | Cc1ccc2[nH]cc(CCN3CC(C(=O)Nc4nnc(C)s4)CC3=O)c2c1 (centres undefined) |
| 1070 | COC(=O)C1=C(C)N(C2CCCCC2)C(=O)C1(NC(=O)c1cccc(OC)c1)C(F)(F)F (centres undefined) |
| 599 | CCc1ccc(NC(=O)N2CC(n3cnnc3C3CCOCC3)C2)cc1 |
| 1040 | CCN1C(=O)COc2ccc(-c3csc(NC(=O)c4ccc(C)cc4)n3)cc21 |
| 836 | CCc1noc(NC(C)=O)c1-c1ccc(C)c(S(=O)(=O)N(CC)CC)c1 |
| 932 | CCn1c(=O)sc2cc(S(=O)(=O)N3CCC(C(=O)Nc4ccc(C)cc4C)CC3)ccc21 |
| 1310 | CCOC(=O)C1CCN(S(=O)(=O)c2cc(-c3nc(C(C)(C)C)cs3)cs2)CC1 |
| 712 | O=C(C1CCCC1)N1CCN(Cc2nnnn2-c2ccccc2)CC1 |
| 1070 | Cc1ccc(S(=O)(=O)Cc2ccc(-c3nc(-c4ccc5oc(C)nc5c4)no3)cc2)cc1 |
| 922 | Cc1ccc(Cl)cc1N1CCN(C(=O)C2CC(=O)c3ccccc32)CC1 (centres undefined) |
| 694 | CC(C)C(=O)NCc1csc(C2CCCN(C(=O)C3CCC3)C2)n1 (centres undefined) |
| 589 | O=C(c1ccc2ccnc(N3CCN(c4ccccc4)CC3)c2c1)N1CCC(N2CCCCC2)CC1 |
| 807 | O=C(CCC1CCCC1)NCCc1noc(C2CC2)n1 |
| 624 | CC1CCN(C(=O)C2CCN(c3cncnc3N(C)C)CC2)CC1 |
| 576 | Cc1cncn(CC(=O)NC2CCCC2)c1=O |
| 736 | CCN1C(=O)Cc2cc(C(=O)NC3CCCCC3)ccc21 |
| 1300 | COc1ccc(OCc2nc(-c3cccc(-c4csc(C5CC5)n4)c3)no2)cc1 |
| 834 | CC1CCN(C(=O)Cn2c(=O)n(-c3ccc(F)cc3)c3ncccc32)CC1 |
| 941 | COc1ccc(NC(=O)N2CCCC2c2nc(-c3ccccc3OC)no2)cc1OC (centres undefined) |
| 578 | CN(C)CC1CN(C(=O)c2ccc(F)c(F)c2)CC12CCOCC2 (centres undefined) |
